Data reported in US9518018B2, “3-alkoxy, thioalkyl and amino-4-amino-6-(substituted)picolinates and their use as herbicides” (Dow AgroSciences LLC, priority 2011, dated 2016).
Where two headings read alike, the source gives them in different places.

How the values were obtained:
[1] = system: TRZAS: wheat, spring (Triticum aestivum); assay: Post-Emergent Test I herbicidal activity; assay type: in vivo; conditions: for GR20 TRZAS: Table 4, growth reduction of 20% of plant growth; for GR20 TRZAS / GR50 TRZAS / GR80 TRZAS: 14 days after application, probit analysis; for GR50 TRZAS: Table 4, growth reduction of 50% of plant growth; for GR80 TRZAS: Table 4, growth reduction of 80% of plant growth
Outline: (§1)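 Greenhouse-grown seedlings (peat-based mix, pH 6.0–6.8; ~15 h photoperiod, 23–29 °C day) were sprayed post-emergence at first/second true-leaf stage with compound in acetone/DMSO/aqueous crop-oil–surfactant carrier at 187 L/ha, using a twofold rate series. Injury was scored visually after 14 d (0–100%); GR20/GR50/GR80 derived by probit analysis.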

[2] = system: ECHCG: barnyardgrass (Echinochloa crus-galli); assay: Post-Emergent Test I herbicidal activity; assay type: in vivo; conditions: post-emergence, 336 h, Table 3, 140 g ai/ha, read-out: Visual Growth Reduction (%)-14 Days after Application ECHCG
Outline: as §1

[3] = system: CHEAL: lambsquarters (Chenopodium album); assay: Post-Emergent Test I herbicidal activity; assay type: in vivo; conditions: for pest or weed control at 140 g/ha / pest or weed control at 8.75 g/ha / pest or weed control at 17.5 g/ha / pest or weed control at 35 g/ha / pest or weed control at 70 g/ha: Chenopodium album, post-emergence, 336 h, read-out: Visual Growth Reduction (%)-14 Days after Application CHEAL; for pest or weed control at 140 g/ha: Table 3, 140 g ai/ha; for pest or weed control at 8.75 g/ha: Table 4, 8.75 g ai/ha; for pest or weed control at 17.5 g/ha: Table 4, 17.5 g ai/ha; for pest or weed control at 35 g/ha: Table 4, 35 g ai/ha; for pest or weed control at 70 g/ha: Table 4, 70 g ai/ha; for Visual Growth Reduction (%)-14 Days after Application CHEAL: Table 4, 140 g ai/ha; for GR20 CHEAL: Table 4, growth reduction of 20% of plant growth; for GR20 CHEAL / GR50 CHEAL / GR80 CHEAL: 14 days after application, probit analysis; for GR50 CHEAL: Table 4, growth reduction of 50% of plant growth; for GR80 CHEAL: Table 4, growth reduction of 80% of plant growth
Outline: (§2)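 Foliar spray, 187 L/ha, track sprayer; plants at 1st–2nd true leaf, 7–21 d old. Carrier: acetone/DMSO + aqueous acetone/IPA/crop oil/Triton X-155; high rate plus ½×–1/16× dilutions. Subirrigated; visual % injury vs untreated at 14 d.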

[4] = system: CYPES: yellow nutsedge (Cyperus esculentus); assay: Post-Emergent Test I herbicidal activity; assay type: in vivo; conditions: post-emergence, 336 h, Table 3, 140 g ai/ha, read-out: Visual Growth Reduction (%)-14 Days after Application CYPES
Outline: as §2

ZEAMX: corn (Zea mays) = assay: Post-Emergent Test I herbicidal activity; assay type: in vivo; conditions: for GR20 ZEAMX: Table 4, growth reduction of 20% of plant growth; for GR20 ZEAMX / GR50 ZEAMX / GR80 ZEAMX: 14 days after application, probit analysis; for GR50 ZEAMX: Table 4, growth reduction of 50% of plant growth; for GR80 ZEAMX: Table 4, growth reduction of 80% of plant growth; for pest or weed control at 140 g/ha / pest or weed control at 8.75 g/ha / pest or weed control at 17.5 g/ha / pest or weed control at 35 g/ha / pest or weed control at 70 g/ha: Zea mays, post-emergence, 336 h, read-out: Visual Growth Reduction (%)-14 Days after Application ZEAMX; for pest or weed control at 8.75 g/ha: Table 4, 8.75 g ai/ha; for pest or weed control at 17.5 g/ha: Table 4, 17.5 g ai/ha; for pest or weed control at 35 g/ha: Table 4, 35 g ai/ha; for pest or weed control at 70 g/ha: Table 4, 70 g ai/ha
Outline: as §2

[5] = system: POLCO: buckwheat, wild (Polygonum convolvulus); assay: Post-Emergent Test I herbicidal activity; assay type: in vivo; conditions: for GR20 POLCO: Table 4, growth reduction of 20% of plant growth; for GR20 POLCO / GR50 POLCO / GR80 POLCO: 14 days after application, probit analysis; for GR50 POLCO: Table 4, growth reduction of 50% of plant growth; for GR80 POLCO: Table 4, growth reduction of 80% of plant growth
Outline: as §2

[6] = system: ABUTH: velvetleaf (Abutilon theophrasti); assay: Post-Emergent Test I herbicidal activity; assay type: in vivo; conditions: for pest or weed control at 140 g/ha / pest or weed control at 8.75 g/ha / pest or weed control at 17.5 g/ha / pest or weed control at 35 g/ha / pest or weed control at 70 g/ha: Abutilon theophrasti, post-emergence, 336 h, read-out: Visual Growth Reduction (%)-14 Days after Application ABUTH; for pest or weed control at 8.75 g/ha: Table 4, 8.75 g ai/ha; for pest or weed control at 17.5 g/ha: Table 4, 17.5 g ai/ha; for pest or weed control at 35 g/ha: Table 4, 35 g ai/ha; for pest or weed control at 70 g/ha: Table 4, 70 g ai/ha; for GR20 ABUTH: Table 4, growth reduction of 20% of plant growth; for GR20 ABUTH / GR50 ABUTH / GR80 ABUTH: 14 days after application, probit analysis; for GR50 ABUTH: Table 4, growth reduction of 50% of plant growth; for GR80 ABUTH: Table 4, growth reduction of 80% of plant growth
Outline: as §2

[7] = system: EPHHL: wild poinsettia (Euphorbia heterophylla); assay: Post-Emergent Test I herbicidal activity; assay type: in vivo; conditions: post-emergence, 336 h, Table 3, 140 g ai/ha, read-out: Visual Growth Reduction (%)-14 Days after Application EPHHL
Outline: as §2

[8] = system: ORYSA: rice (Oryza sativa); assay: Post-Emergent Test I herbicidal activity; assay type: in vivo; conditions: post-emergence, 336 h, Table 3, 140 g ai/ha, read-out: Visual Growth Reduction (%)-14 Days after Application ORYSA
Outline: as §1

COc1c(C(=O)O)nc(-c2ccc(Cl)c(OC)c2F)c(F)c1N [Compound 45, 4-amino-6-(4-chloro-2-fluoro-3-methoxyphenyl)-5-fluoro-3-methoxypicolinic acid]
melting point: 143 to 146 °C
Visual Growth Reduction (%)-14 Days after Application TRZAS ([1]; Table 4, 8.75 g ai/ha): 10%
Visual Growth Reduction (%)-14 Days after Application TRZAS ([1]; Table 4, 17.5 g ai/ha): 20%
Visual Growth Reduction (%)-14 Days after Application TRZAS ([1]; Table 4, 35 g ai/ha): 55%
Visual Growth Reduction (%)-14 Days after Application TRZAS ([1]; Table 4, 70 g ai/ha): 60%
Visual Growth Reduction (%)-14 Days after Application TRZAS ([1]; Table 4, 140 g ai/ha): 65%
GR20 TRZAS [1]: 14.3 g ai/ha
GR50 TRZAS [1]: 53.5 g ai/ha
GR80 TRZAS [1]: >140 g ai/ha
pest or weed control at 140 g/ha [2]: 100%
pest or weed control at 140 g/ha [3]: 100%
pest or weed control at 8.75 g/ha [3]: 90%
pest or weed control at 17.5 g/ha [3]: 100%
pest or weed control at 35 g/ha [3]: 100%
pest or weed control at 70 g/ha [3]: 100%
Visual Growth Reduction (%)-14 Days after Application CHEAL [3]: 100%
GR20 CHEAL [3]: <8.75 g ai/ha
GR50 CHEAL [3]: <8.75 g ai/ha
GR80 CHEAL [3]: <8.75 g ai/ha
pest or weed control at 140 g/ha [4]: 100%
GR20 ZEAMX (ZEAMX: corn (Zea mays)): <8.75 g ai/ha
GR50 ZEAMX (ZEAMX: corn (Zea mays)): 12.4 g ai/ha
GR80 ZEAMX (ZEAMX: corn (Zea mays)): >140 g ai/ha
pest or weed control at 140 g/ha (ZEAMX: corn (Zea mays); Table 3, 140 g ai/ha): 65%
pest or weed control at 8.75 g/ha (ZEAMX: corn (Zea mays)): 50%
pest or weed control at 17.5 g/ha (ZEAMX: corn (Zea mays)): 50%
pest or weed control at 35 g/ha (ZEAMX: corn (Zea mays)): 55%
pest or weed control at 70 g/ha (ZEAMX: corn (Zea mays)): 60%
pest or weed control at 140 g/ha (ZEAMX: corn (Zea mays); Table 4, 140 g ai/ha): 65%
Visual Growth Reduction (%)-14 Days after Application POLCO ([5]; Table 4, 8.75 g ai/ha): 100%
Visual Growth Reduction (%)-14 Days after Application POLCO ([5]; Table 4, 17.5 g ai/ha): 100%
Visual Growth Reduction (%)-14 Days after Application POLCO ([5]; Table 4, 35 g ai/ha): 100%
Visual Growth Reduction (%)-14 Days after Application POLCO ([5]; Table 4, 70 g ai/ha): 100%
Visual Growth Reduction (%)-14 Days after Application POLCO ([5]; Table 4, 140 g ai/ha): 100%
GR20 POLCO [5]: <8.75 g ai/ha
GR50 POLCO [5]: <8.75 g ai/ha
GR80 POLCO [5]: <8.75 g ai/ha
pest or weed control at 140 g/ha ([6]; Table 3, 140 g ai/ha): 100%
pest or weed control at 8.75 g/ha [6]: 90%
pest or weed control at 17.5 g/ha [6]: 100%
pest or weed control at 35 g/ha [6]: 100%
pest or weed control at 70 g/ha [6]: 100%
pest or weed control at 140 g/ha ([6]; Table 4, 140 g ai/ha): 100%
GR20 ABUTH [6]: <8.75 g ai/ha
GR50 ABUTH [6]: <8.75 g ai/ha
GR80 ABUTH [6]: <8.75 g ai/ha
pest or weed control at 140 g/ha [7]: 100%
pest or weed control at 140 g/ha [8]: 0%

COC(=O)c1nc(-c2ccc(Cl)cc2F)cc(N)c1OC [Compound 6, Methyl 4-amino-6-(4-chloro-2-fluorophenyl)-3-methoxypicolinate]
melting point: 139 to 144 °C
Visual Growth Reduction (%)-14 Days after Application TRZAS ([1]; Table 4, 8.75 g ai/ha): 0%
Visual Growth Reduction (%)-14 Days after Application TRZAS ([1]; Table 4, 17.5 g ai/ha): 0%
Visual Growth Reduction (%)-14 Days after Application TRZAS ([1]; Table 4, 35 g ai/ha): 15%
Visual Growth Reduction (%)-14 Days after Application TRZAS ([1]; Table 4, 70 g ai/ha): 45%
Visual Growth Reduction (%)-14 Days after Application TRZAS ([1]; Table 4, 140 g ai/ha): 50%
GR20 TRZAS [1]: 47.5 g ai/ha
GR50 TRZAS [1]: 109 g ai/ha
GR80 TRZAS [1]: >140 g ai/ha
pest or weed control at 140 g/ha [2]: 0%
pest or weed control at 140 g/ha [3]: 100%
pest or weed control at 8.75 g/ha [3]: 90%
pest or weed control at 17.5 g/ha [3]: 100%
pest or weed control at 35 g/ha [3]: 100%
pest or weed control at 70 g/ha [3]: 100%
Visual Growth Reduction (%)-14 Days after Application CHEAL [3]: 100%
GR20 CHEAL [3]: <8.75 g ai/ha
GR50 CHEAL [3]: <8.75 g ai/ha
GR80 CHEAL [3]: <8.75 g ai/ha
pest or weed control at 140 g/ha [4]: 20%
GR20 ZEAMX (ZEAMX: corn (Zea mays)): 132 g ai/ha
GR50 ZEAMX (ZEAMX: corn (Zea mays)): >140 g ai/ha
GR80 ZEAMX (ZEAMX: corn (Zea mays)): >140 g ai/ha
pest or weed control at 140 g/ha (ZEAMX: corn (Zea mays); Table 3, 140 g ai/ha): 0%
pest or weed control at 8.75 g/ha (ZEAMX: corn (Zea mays)): 0%
pest or weed control at 17.5 g/ha (ZEAMX: corn (Zea mays)): 0%
pest or weed control at 35 g/ha (ZEAMX: corn (Zea mays)): 0%
pest or weed control at 70 g/ha (ZEAMX: corn (Zea mays)): 10%
pest or weed control at 140 g/ha (ZEAMX: corn (Zea mays); Table 4, 140 g ai/ha): 20%
Visual Growth Reduction (%)-14 Days after Application POLCO ([5]; Table 4, 8.75 g ai/ha): 0%
Visual Growth Reduction (%)-14 Days after Application POLCO ([5]; Table 4, 17.5 g ai/ha): 100%
Visual Growth Reduction (%)-14 Days after Application POLCO ([5]; Table 4, 70 g ai/ha): 100%
Visual Growth Reduction (%)-14 Days after Application POLCO ([5]; Table 4, 140 g ai/ha): 100%
GR20 POLCO [5]: 10.7 g ai/ha
GR50 POLCO [5]: 12.4 g ai/ha
GR80 POLCO [5]: 14.3 g ai/ha
pest or weed control at 140 g/ha ([6]; Table 3, 140 g ai/ha): 60%
pest or weed control at 8.75 g/ha [6]: 50%
pest or weed control at 17.5 g/ha [6]: 75%
pest or weed control at 35 g/ha [6]: 80%
pest or weed control at 70 g/ha [6]: 85%
pest or weed control at 140 g/ha ([6]; Table 4, 140 g ai/ha): 85%
GR20 ABUTH [6]: <8.75 g ai/ha
GR50 ABUTH [6]: 6.42 g ai/ha
GR80 ABUTH [6]: 38.1 g ai/ha
pest or weed control at 140 g/ha [7]: 100%
pest or weed control at 140 g/ha [8]: 5%
